The text below walks through data of patent publication US7517998B2, “Non nucleoside reverse transcriptase inhibitors” (priority 2004, dated 2009).

One assay addresses T1, K103NNY181C mutant reverse transcriptase (Human immunodeficiency virus type 1 group M subtype B, UniProt P04585, K690N/Y768C).
T1 construct: mutations that occur in the reverse transcriptase segment of the pol gene
Kind of assay: Reverse transcriptase enzymatic assay (PicoGreen), K103N/Y181C mutant RT. The assay is classed as biochemical, HIV-1. The conditions noted are these: IC50 mut (nM), mutant (K103N/Y181C) reverse transcriptase, enzymatic assay of Example 24. On the procedure: The enzymatic assay employed is described as follows: The reverse transcriptase (RT) enzyme assay has been adapted to a 96-well microtiter plate format and uses PicoGreen™ as a fluorescent intercalator. More explicitly, the HIV-1 RT enzyme was thawed and appropriately diluted into Tris/HCl 50 mM pH 7.8 containing NaCl 60 mM, MgCl2.6H2O 2 mM, DTT 6 mM, GSH 2 mM and 0.02% w/v Chaps to give ≈10 nM enzyme. To 10 μL of this enzyme solution was added 10 μL of inhibitor solution (40 μM to 2.032 nM inhibitor in the same assay buffer as above containing 4% v/v DMSO). The plate was pre-incubated for 15 minutes at room temperature before proceeding to the next step. In this pre-incubation step, the highest and lowest inhibitor concentrations were 20 μM and 1.016 nM respectively and the concentration of DMSO was 2% v/v. Then the enzymatic reaction was initiated by addition of 20 μL of substrate solution. The final reaction mixture contained Tris/HCl 50 mM pH 7.8, NaCl 60 mM, MgCl2.6H2O 2 mM, DTT 6 mM, GSH 2 mM, CHAPS 0.02% w/v, DMSO 1% v/v, poly rC 45 nM, dG15 4.5 nM, dGTP 3.6 μM, and 2.5 nM enzyme. In this incubation step, the highest and lowest inhibitor concentrations were 10 μM and 0.508 nM respectively. After addition of the substrate cocktail, the plate was covered with a plastic seal and incubated for 50 minutes at 37° C. in a dry incubator. The reaction was then quenched by addition of 5 μL of EDTA 0.5 M. The plate was shaken for 30 seconds at medium speed and incubated for 5 minutes at room temperature. Then 160 μL of PicoGreen™ 1:400 dilution from commercial stock (diluted in Tris 20 mM pH 7.5 with EDTA 1 mM) was added and the plate was shaken for 30 seconds and incubated for 10 minutes at room temperature. The plate was then analyzed using a POLARstar Galaxy fluorometer (BMG Labtechnologies) with λex and λem of 485 nm and 520 nm respectively. Each well was read for 1.25 second. Each row contained at its extremities a blank and a control well.
The compound `CC(C)CCC(=O)Nc1ccc(NC(=O)CSc2nnnn2-c2ccc(C(C)(C)C)cc2Cl)c(Cl)c1` [Compound 7024] had an IC50 of 414 nM.

`CC(C(=O)Nc1ccc(NC(=O)CSc2nnnn2-c2ccc(C(C)(C)C)cc2Cl)c(Cl)c1)c1ccccc1` (stereo not shown) [Compound 7044] came in with a 50% inhibitory concentration (IC50) of 335 nM.

`CC(C)(C)c1ccc(-n2nnnc2SCC(=O)Nc2ccc(NS(=O)(=O)c3cccs3)cc2Cl)c(Cl)c1` [Compound 7007] showed a 50% inhibitory concentration (IC50) of 331 nM.

As for `C#CCCC(=O)Nc1ccc(NC(=O)CSc2nnnn2-c2ccc(C(C)(C)C)cc2Cl)c(Cl)c1` [Compound 7020], half-maximal inhibition (IC50) required 69 nM.

Turning to `CC(C)(C)c1ccc(-n2nnnc2SCC(=O)Nc2ccc(NC(=O)Cc3ccccc3O)cc2Cl)c(Cl)c1` [Compound 7042], the midpoint of inhibition, the IC50, lay at 27 nM.

`CC(C)(C)c1ccc(-n2nnnc2SCC(=O)Nc2ccc(NC(=O)Cc3ccsc3)cc2Cl)c(Cl)c1` [Compound 7026] yielded a half-inhibitory concentration (IC50) of 88 nM.

The same assay, now with this note: IC50 mut, K103N/Y181C mutant reverse transcriptase, enzymatic assay of Example 24.
The compound `CN(C)c1ccc(Cl)c(-n2nnnc2SCC(=O)Nc2ccc(C#CC(C)(C)C(=O)O)cc2Cl)c1` [Compound 4243] gave a 50% inhibitory concentration (IC50) of 140 nM.

The compound `CC(NC(=O)COC(C)(C)C#Cc1ccc(NC(=O)CSc2nnnn2-c2ccc(C(C)(C)C)cc2Cl)c(Cl)c1)C(=O)O` (stereo not shown) [Compound 4053] yielded an IC50 of 25 nM.

`CCN(CC)CC#Cc1ccc(NC(=O)CSc2nnnn2-c2ccc(C(C)(C)C)cc2Cl)c(Cl)c1` [Compound 4008] showed an IC50 of 94 nM.

In turn, `CC(C)(C)c1ccc(-n2nnnc2SCC(=O)Nc2ccc(C#CCN3CCCC3)cc2Cl)c(Cl)c1` [Compound 4012] registered an IC50 of 46 nM.

`CC(C)(C#Cc1ccc(NC(=O)CSc2nnnn2-c2cc(C3CC3)ccc2Cl)c(Cl)c1)NC(=O)c1cc[n+]([O-])cc1` [Compound 4208]: the IC50 is 6.9 nM.

Compound `CC(C)(C#Cc1ccc(NC(=O)CSc2nnnn2-c2ccc(C(C)(C)C)cc2Cl)c(Cl)c1)OCC(=O)Nc1ccc(O)cc1` [Compound 4024] returned an IC50 of 35 nM.

In turn, `CC(C)(C#Cc1ccc(NC(=O)CSc2nnnn2-c2cc(C(C)(C)C)ccc2Cl)c(Cl)c1)NC(=O)CN1CCC(C(=O)O)CC1` [Compound 4204] came in with an IC50 of 35 nM.

Compound `CC(C)(C#Cc1ccc(NC(=O)CSc2nnnn2-c2cc(C(F)(F)F)ccc2Cl)c(Cl)c1F)C(=O)O` [Compound 4101] returned a concentration for half-maximal inhibition (IC50) of 57 nM.

For the compound `CC(C)(C#Cc1ccc(NC(=O)CSc2nnnn2-c2ccc(C3CC3)cc2Cl)c(Cl)c1)C(=O)NS(=O)(=O)C1CC1` [Compound 4184], the 50% inhibitory concentration (IC50) was 30.5 nM.

`Cc1cc(C(F)(F)F)cc(-n2nnnc2SCC(=O)Nc2ccc(C#CC(C)(C)C(=O)O)cc2Cl)c1Cl` [Compound 4058] registered a half-maximal inhibitory concentration (IC50) of 63 nM.

Compound `CN(C)CC(=O)NC(C)(C)C#Cc1ccc(NC(=O)CSc2nnnn2-c2ccc(C3CC3)cc2Cl)c(Cl)c1F` [Compound 4155] had an IC50 of 9.15 nM.

`CCOC(=O)NC(C)(C)C#Cc1ccc(NC(=O)CSc2nnnn2-c2ccc(C3CC3)cc2Cl)c(Cl)c1` [Compound 4081]: half-maximal inhibition (IC50) required 19.5 nM.

For the compound `CC(C)(C#Cc1ccc(NC(=O)CSc2nnnn2-c2ccc(C3CC3)cc2Cl)c(Cl)c1F)NC(=O)c1cc[n+]([O-])cc1` [Compound 4157], the IC50 was determined as 5.95 nM.

Turning to `CC(C)(C#Cc1ccc(NC(=O)CSc2nnnn2-c2ccc(C3CC3)cc2Cl)c(Cl)c1)C(=O)NC(C)(C)C(=O)O` [Compound 4144], half-maximal inhibition (IC50) required 81 nM.

In the case of `O=C(CSc1nnnn1-c1ccc(C2CC2)cc1Cl)Nc1ccc(C#CC2(CN3CCC(O)CC3)CC2)cc1Cl` [Compound 4096], half-maximal inhibition (IC50) was put at 37 nM.

Regarding `CC(C)(C#Cc1ccc(NC(=O)CSc2nnnn2-c2ccc(C3CC3)cc2Cl)c(Cl)c1)NC(=O)CCC(=O)O` [Compound 4238], the IC50 was determined as 7.8 nM.

`O=C(CSc1nnnn1-c1ccc(C2CC2)cc1Cl)Nc1ccc(C#CC2(CN3CCCC3)CC2)cc1Cl` [Compound 4092] displayed an IC50 of 61.5 nM.

In turn, `CC(C)(C#Cc1ccc(NC(=O)CSc2nnnn2-c2ccc(C3CC3)cc2Cl)c(Cl)c1F)OCCN1CCNCC1` [Compound 4176] displayed an IC50 of 108 nM.

The compound `O=C(CSc1nnnn1-c1ccc(C2CC2)cc1Cl)Nc1ccc(C#CC2(CO)CC2)cc1Cl` [Compound 4083] registered an IC50 of 29 nM.

Consider `CC(C)(C#Cc1ccc(NC(=O)CSc2nnnn2-c2ccc(C3CC3)cc2Cl)c(Cl)c1)NC(=O)c1cnccn1` [Compound 4111], for which it took 8.6 nM to reach half-maximal inhibition (IC50).

For the compound `CC(C)(C#Cc1ccc(NC(=O)CSc2nnnn2-c2cc(C(F)(F)F)c(C3CC3)cc2Cl)c(Cl)c1)C(=O)O` [Compound 4211], the 50% inhibitory concentration (IC50) turned out to be 482 nM.

On to `CC(C)(O)C#Cc1ccc(NC(=O)CSc2nnnn2-c2ccc(C3CC3)cc2Cl)c(Br)c1` [Compound 4078], for which inhibition was half-maximal at 13.5 nM (IC50).

Consider `CC(C)(C#Cc1ccc(NC(=O)CSc2nnnn2-c2cc(C(F)(F)F)ccc2Cl)c(Cl)c1)NC(=O)c1ncccn1` [Compound 4139], for which the IC50 was found to be 20.5 nM.

The compound `CC(C)(C#Cc1ccc(NC(=O)CSc2nnnn2-c2ccc(C3CC3)cc2Cl)c(Cl)c1)NC(=O)Cn1cncn1` [Compound 4109] showed an IC50 of 10.8 nM.

Consider `CC(C)(O)C#Cc1ccc(NC(=O)CSc2nnnn2-c2cc(F)cc(C(F)(F)F)c2Cl)c(Cl)c1` [Compound 4029], for which 212 nM corresponded to half-maximal inhibition (IC50).

Take `CC(C)(C#Cc1ccc(NC(=O)CSc2nnnn2-c2ccc(CC3CC3)cc2Cl)c(Cl)c1)C(=O)O` [Compound 4240]: inhibition was half-maximal at 175 nM (IC50).

The assay is the same for the next values; noted with them: IC50 mut, mutant reverse transcriptase, enzymatic assay of Example 24.
Compound `CC(C)(C)c1ccc(-n2nnnc2SCC(=O)Nc2ccc(OCC(=O)NCCc3ccc(O)cc3)cc2Cl)c(Cl)c1` [Compound 5016] returned an IC50 of 116 nM.

As for `O=C(COc1ccc(NC(=O)CSc2nnnn2-c2ccc(C3CC3)cc2Cl)c(Cl)c1)NCc1cccnc1` [Compound 5033], the IC50 is 124 nM.

`Cc1ccc(-c2ncsc2SCC(=O)Nc2ccc(-c3ccc(CC(=O)O)cc3)cc2Cl)c(Cl)c1` [Compound 1002] came in with an IC50 of 795 nM.

Turning to `COC(=O)C=C(C)c1ccc(NC(=O)CSc2nnnn2-c2ccc(C3CC3)cc2Cl)c(Cl)c1` [Compound 3044], the concentration for half-maximal inhibition (IC50) stood at 58.5 nM.

As for `CC(C)c1ccc(-n2nnnc2SCC(=O)Nc2ccc(-c3ccc(C(C)(C)C(=O)O)cc3)cc2Cl)c(Cl)c1` [Compound 2055], the IC50 was 56 nM.

`CC(C)(C)c1ccc(-n2nnnc2SCC(=O)Nc2ccc(-c3ccc(OCCN4CCC(O)CC4)cc3)cc2Cl)c(Cl)c1` [Compound 2031] had an IC50 of 34 nM.

Consider `CC(C)(C)c1ccc(-n2nnnc2SCC(=O)Nc2ccc(OCC(=O)NCCc3ccc(O)c(O)c3)cc2Cl)c(Cl)c1` [Compound 5021], for which the IC50 was 181 nM.

The compound `CC(C)c1ccc(-n2nnnc2SCC(=O)Nc2ccc(-c3ccc(OCCN4CCCC4)cc3)cc2Cl)c(Cl)c1` [Compound 2056] returned a half-maximal inhibitory concentration (IC50) of 29 nM.

On to `CC(C)(C(=O)O)c1ccc(-c2ccc(NC(=O)CSc3nnnn3-c3ccc(C4CC4)cc3Cl)c(Cl)c2)cc1` [Compound 2052], for which the midpoint of inhibition, the IC50, lay at 19 nM.

For the compound `CC(C)(C)c1ccc(-n2nnnc2SCC(=O)Nc2ccc(OCCN3CCCCC3)cc2Cl)c(Cl)c1` [Compound 3033], the midpoint of inhibition, the IC50, lay at 201 nM.

`CC(C)(C)c1ccc(-n2nnnc2SCC(=O)Nc2ccc(OCC(=O)N3CCOCC3)cc2Cl)c(Cl)c1` [Compound 5004] had an IC50 of 41 nM.

In turn, `Cc1ccc(-n2nnnc2SCC(=O)Nc2ccc(-c3nnn[nH]3)cc2Cl)c(Cl)c1` [Compound 3019] showed an IC50 of 539 nM.

`O=C(COc1ccc(NC(=O)CSc2nnnn2-c2ccc(C3CC3)cc2Cl)c(Cl)c1)NCCc1cccnc1` [Compound 5035]: the IC50 worked out at 258 nM.

Consider `CC(C)(C)c1ccc(-n2nnnc2SCC(=O)Nc2ccc(OCC(=O)Nc3cccc(C(=O)O)c3)cc2Cl)c(Cl)c1` [Compound 5022], for which the IC50 worked out at 106 nM.

For `O=C(O)Cc1ccc(-c2ccc(NC(=O)CSc3nnnn3-c3ccc(OC(F)(F)F)cc3Cl)c(Cl)c2)cc1` [Compound 2034], the IC50 came out at 178 nM.

The compound `CC(C)(C)c1ccc(-n2nnnc2SCC(=O)Nc2ccc(OCC(=O)NC3CCOCC3)cc2Cl)c(Cl)c1` [Compound 5030] yielded an IC50 of 116 nM.

In turn, `O=C(CSc1nnnn1-c1ccc(C2CC2)cc1Cl)Nc1ccc(-c2ccc(OCCN3CCS(=O)(=O)CC3)cc2)c(F)c1Cl` [Compound 2059] gave a 50% inhibitory concentration (IC50) of 13 nM.

`CC(C)(C)c1ccc(-n2nnnc2SCC(=O)Nc2ccc(-c3cccc(C(=O)O)c3)cc2Cl)c(Cl)c1` [Compound 3022] gave an IC50 of 50 nM.

Take `O=C(CSc1nnnn1-c1ccc(C2CC2)cc1Cl)Nc1ccc(-c2ccc(OCCN3CCCCC3)c(Cl)c2)cc1Cl` [Compound 3038]: the IC50 amounted to 167 nM.

With `O=C(CSc1nnnn1-c1cc(C(F)(F)F)ccc1Cl)Nc1ccc(-c2ccc(OCCN3CCCCC3)cc2)cc1Cl` [Compound 2049], the midpoint of inhibition, the IC50, lay at 54 nM.

As usually defined, the IC50 is the concentration needed to halve the response being measured. Low values mean higher potency, high ones lower potency.
